Reference: EP1911451A1, “Protein-kinase CK2 inhibitors and their therapeutic applications” (INSERM (Institut National de la Santé et de la Recherche …, priority 2006, dated 2008)
Where two headings read alike, the source gives them in different places.

How the values were obtained:
CK2α [1] = molecular target: T1, CK2α (Homo sapiens, UniProt P68400); assay: in vitro CK2 kinase assay (inhibition of catalytic activity); assay type: biochemical
Method: (§1) Lineweaver-Burk inhibition plots of CK2α in the presence of different concentrations of Quinobene (0; 0.1; 0.2; 0.4; 0.8 µM). • (A) variable concentrations of ATP with Peptide] = 500 µM. (B) variable concentrations of Peptide with [ATP] = 200 µM. […] Lineweaver-Burk inhibition plots of CK2α in the presence of different concentrations of CCB8 (0; 1.1; 2.2 µM for ATP competition assay; 0; 1.1 µM for peptide competition assay). (A) variable concentrations of ATP with [Peptide] = 166 µM. (B) variable concentrations of Peptide with [ATP] = 25 µM. […] A549 cells were treated for 48 hours with increasing concentrations of CCB8 (σ) or Naphtobene (ν). Cell viability was evaluated with the Cell Titer Glo kit (Promega).
4,4'-bis(8-hydroxy-5-sulfo-7-quinolineazo)stilbene-2,2'-disulfonic acid (Quinobene) or 4,4'-[(1-hydroxy-4-sulfo-2-naphtyl)azo] 2,2'-stilbenedisulfonic acid (Naphtobene) were obtained from the National Cancer Institute and screened for CK2 inhibitors using an in vitro CK2 kinase assay (Filhol et al., 1991).
CCB8 was tested in the in vitro CK2 assay.

CK2α [2] = molecular target: T1, CK2α; assay: Lineweaver-Burk inhibition plots (ATP and peptide competition); assay type: biochemical; conditions: for mode of inhibition: with respect to ATP or the phosphoacceptor peptide
Method: as §1

A549 cells = assay: Cancer cell viability (Cell Titer Glo kit); assay type: cell-based; conditions: increasing concentrations, 48 hours
Method: as §1
A549 cells were treated with increasing concentrations of TBB 4,5,6,7-TetraBromoBenzotriazole (Calbiochem®) or Quinobene for 48 hours and the cell viability was monitored.

[3] = tested on: non-small cell lung cancer cells (A549); assay: Confocal microscopic analysis of cell uptake; assay type: cell-based; conditions: 100 µM, 48 hours, confocal microscopy
[4] = inhibition of CK2 catalytic activity, dose-dependent (Figure 2), read-out: half-maximal effective concentration
[5] = inhibition of the catalytic activity of recombinant CK2α, read-out: IC50

T1 sequence (P68400 whole entry): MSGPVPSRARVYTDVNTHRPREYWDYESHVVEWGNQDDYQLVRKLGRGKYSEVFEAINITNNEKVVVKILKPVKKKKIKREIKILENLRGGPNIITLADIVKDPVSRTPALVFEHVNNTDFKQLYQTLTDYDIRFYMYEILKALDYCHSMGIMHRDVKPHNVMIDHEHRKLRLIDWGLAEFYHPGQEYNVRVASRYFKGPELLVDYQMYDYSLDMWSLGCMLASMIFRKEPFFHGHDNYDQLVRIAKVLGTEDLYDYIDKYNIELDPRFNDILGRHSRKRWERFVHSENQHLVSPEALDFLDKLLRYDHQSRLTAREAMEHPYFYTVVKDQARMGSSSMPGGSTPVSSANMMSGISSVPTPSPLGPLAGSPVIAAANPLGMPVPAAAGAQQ

| SMILES | IC50 (CK2α [1]; inhibition of the catalytic activity of recombinant CK2α) [nM] | Ki (CK2α [2]; deduced from Lineweaver-Burk graph (Figure 5), read-out: Ki constant) [nM] | mode of inhibition (CK2α [2]) | cell viability / proapoptotic efficacy (A549 cells) | IC50 (CK2α [1]; [4]) [nM] | IC50 (CK2α [1]; [5]) [nM] | cell permeability [3] |
| --- | --- | --- | --- | --- | --- | --- | --- |
| Nc1ccc(C(=O)O)cc1N=Nc1ccc(C=Cc2ccc(N=Nc3cc(C(=O)O)ccc3N)cc2S(=O)(=O)O)c(S(=O)(=O)O)c1 [CCB8] | 600 | 85 | non-competitive inhibitor | potency correlates with its proapoptotic efficacy |  |  |  |
| O=S(=O)(O)c1cc(/N=N/c2cc(S(=O)(=O)O)c3ccccc3c2O)ccc1/C=C/c1ccc(/N=N/c2cc(S(=O)(=O)O)c3ccccc3c2O)cc1S(=O)(=O)O [Naphtobene, 4,4'-[(1-hydroxy-4-sulfo-2-naphtyl)azo] 2,2'-stilbenedisulfonic acid] |  |  |  | potency correlates with its proapoptotic efficacy | 300 | 300 | cell permeable |
| O=S(=O)(O)c1cc(/N=N/c2cc(S(=O)(=O)O)c3cccnc3c2O)ccc1/C=C/c1ccc(/N=N/c2cc(S(=O)(=O)O)c3cccnc3c2O)cc1S(=O)(=O)O [Quinobene, 4,4'-bis(8-hydroxy-5-sulfo-7-quinolineazo)stilbene-2,2'-disulfonic acid] |  |  | non-competitive inhibitor | potency correlates with its proapoptotic efficacy | 130 | 130 |  |
